From US20240408139A1, “ENGINEERED CYTOKINE RECEPTORS FOR TUNABLE ADOPTIVE CELL THERAPY” (Dana-Farber Cancer Institute, Inc., priority 2021, published 2024)

How the values were obtained:
[1] = tested on: CD8+ T cells comprising anti-fluorescein CAR; assay: Stimulation of anti-fluorescein CAR T cells by plate-bound or free FITC conjugate; IL-2, IFN-gamma and CD69 by flow cytometry; assay type: cell-based
Protocol: T cells comprising a nucleic acid encoding anti-fluorescein CAR were stimulated on FITC-conjugated-antibody-coated normal (Normal) or high affinity (High affinity) plates or antibody-FITC solution (Free) with increasing doses of FITC (0, 0.1, 1, 10, and 100 μg/mL) in the presence or absence of CD3/CD28 co-stimulation. Expression of IL-2, IFN-gamma and CD69 in CD8^+ T cells were assessed by flow cytometry.

[2] = tested on: CD8+ T cells; assay: Memory markers on CD8+ T cells expressing cytokine receptor switches, stimulated on FITC-conjugated-BSA-coated plate, flow cytometry; assay type: cell-based, human; conditions: with CD3/CD28-costimulation
Protocol: (§1) T cells comprising nucleic acids encoding cytokine receptor switches were stimulated on FITC-conjugated-BSA-coated plate (FIG. 2) with increasing dose of FITC (0, 0.1, 1, 10, 100, and 1000 μg/mL) in the presence or absence of CD3/CD28 co-stimulation for up to 2 weeks. The effector memory (CD45RA^− CCR7^−), central memory (CD45RA^−, CCR7 ^+), and activation (CD69) markers on CD4^+ and CD8^+ T cells were assessed by flow cytometry.

[3] = tested on: CD4+ T cells; assay: Memory markers on CD4+ T cells expressing cytokine receptor switches, stimulated on FITC-conjugated-BSA-coated plate, flow cytometry; assay type: cell-based, human; conditions: with CD3/CD28-costimulation, up to 2 weeks, FIG. 3A
Protocol: as §1

fluorescein isothiocyanate [FITC]
expression of IL-2 in CAR T cells ([1]; FITC-dose-dependent, 0-100 μg/mL, FIG. 5A): increased | expression of IFN-gamma in CAR T cells ([1]; FITC-dose-dependent, 0-100 μg/mL, FIG. 5B): increased | expression of CD69 in CAR T cells ([1]; FITC-dose-dependent, 0-100 μg/mL, FIG. 5C): increased

BSA-FITC: fluorescein isothiocyanate (FITC) conjugated to bovine serum albumin (BSA)
stimulation of fluorescein-specific BAT-CAR-T cells ([1]; bound on high-affinity plate, FIGS. 5A-5C): efficiently stimulated

B1: IL2RA-cytokine receptor switch: IL2RA signal peptide, anti-fluorescein scFv, CD8 hinge, IL2RA transmembrane and intracellular domains; SEQ ID NO: 59 (protein)
chain: MDSYLLMWGLLTFIMVPGCQADVVMTQTPLSLPVSLGDQASISCRSSQSLVHSNGNTYLRWYLQKPGQSPKVLIYKVSNRVSGVPDRFSGSGSGTDFTLKINRVEAEDLGVYFCSQSTHVPWTFGGGTKLEIKSSADDAKKDAAKKDDAKKDDAKKDGGVKLDETGGGLVQPGGAMKLSCVTSGFTFGHYWMNWVRQSPEKGLEWVAQFRNKPYNYETYYSDSVKGRFTISRDDSKSSVYLQMNNLRVEDTGIYYCTGASYGMEYLGQGTSVTVSTTTPAPRPPTPAPTIASQPLSLRPEACRPAAGGAVHTRGLDFACDVAVAGCVFLLISVLLLSGLTWQRRQRKSRRTI
central memory markers (CD45RA-, CCR7+) on CD8+ T cells ([2]; FIG. 3B): increased | effector memory markers (CD45RA- CCR7-) on CD8+ T cells ([2]; FITC-BSA-coated plate, up to 2 weeks, FIG. 3A): increased | effector memory markers (CD45RA- CCR7-) on CD4+ T cells [3]: increased
